Assay results as given in the supplement of paper PMC11962398.

Experiments:
BI-2493 [1] = compound: T1, C[C@H]1CNCCN1c1nccc(-c2noc3c2CCC[C@@]32CCCc3sc(N)c(C#N)c32)n1 [BI-2493]; conditions: 5 days
Protocol: (§1)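 PRISM pooled barcoded cancer cell line viability screen (Broad Institute) with BI-2493 at 8 doses in threefold dilutions from 0.00457 to 10 µmol/L, 5-day treatment; curves fitted per cell line. IC50 is undefined (placeholder) for resistant lines. AUC is capped at 1, and sensitivity is reported as 1 − AUC.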

BI-2493 [2] = compound: T1, BI-2493; assay: 1 - AUC of viability dose-response curve (sensitivity) (fraction); higher = more sensitive; conditions: 5 days
Protocol: as §1

| Test System | IC50 of cell viability (BI-2493 [1]) [µM] | 1 - AUC of viability dose-response curve (BI-2493 [2]) |
| --- | --- | --- |
| MKN74_STOMACH | 7.22 | 0.117 |
| MM1S_HAEMATOPOIETIC_AND_LYMPHOID_TISSUE | 0.558 | 0.413 |
| MM127_SKIN | 7.34 | 0.0501 |
| MMNK1_BILIARY_TRACT | 4.9 | 0.0714 |
| MOLM14_HAEMATOPOIETIC_AND_LYMPHOID_TISSUE | 2.79 | 0.145 |
| MOLP2_HAEMATOPOIETIC_AND_LYMPHOID_TISSUE | 6.56 | 0.0525 |
| MOLT3_HAEMATOPOIETIC_AND_LYMPHOID_TISSUE | 6.51 | 0.0789 |
| MOLT13_HAEMATOPOIETIC_AND_LYMPHOID_TISSUE | 5.21 | 0.13 |
| MOLT16_HAEMATOPOIETIC_AND_LYMPHOID_TISSUE | 1.81 | 0.297 |
| MONOMAC1_HAEMATOPOIETIC_AND_LYMPHOID_TISSUE | 7.33 | 0.17 |
| MONOMAC6_HAEMATOPOIETIC_AND_LYMPHOID_TISSUE | 7.72 | 0.149 |
| MON_SOFT_TISSUE | 2.57 | 0.163 |
| MP41_UVEA | 5.17 | 0.119 |
| MPP89_PLEURA | 9.24 | 0.0335 |
| MS751_CERVIX | 8.93 | 0.029 |
| MSTO211H_PLEURA | 3.67 | 0.136 |
| NALM6_HAEMATOPOIETIC_AND_LYMPHOID_TISSUE | 6.5 | 0.0753 |
| NB1_AUTONOMIC_GANGLIA | 3.3 | 0.201 |
| NB4_HAEMATOPOIETIC_AND_LYMPHOID_TISSUE | 2.53 | 0.175 |
| NCCIT_TESTIS | 0.878 | 0.192 |

| Test System | IC50 of cell viability (BI-2493 [1]) [µM] | 1 - AUC of viability dose-response curve (BI-2493 [2]) |
| --- | --- | --- |
| NCIH23_LUNG | 3 | 0.199 |
| NCIH28_PLEURA | 5.43 | 0.0967 |
| NCIH82_LUNG | 8.8 | 0.0218 |
| NCIH196_LUNG | 6.4 | 0.0864 |
| NCIH226_LUNG | 5.37 | 0.134 |
| NCIH292_LUNG | 5.7 | 0.0643 |
| NCIH322_LUNG | 2.29 | 0.257 |
| NCIH358_LUNG | 2.33 | 0.281 |
| NCIH441_LUNG | 4.14 | 0.168 |
| NCIH446_LUNG | 4.06 | 0.216 |
| NCIH508_LARGE_INTESTINE | > 10 | 0.088 |
| NCIH520_LUNG | > 10 | 0.0795 |
| NCIH522_LUNG | 9.9 | 0.0303 |
| NCIH524_LUNG | 5.44 | 0.0829 |
| NCIH596_LUNG | > 10 | 0.00278 |
| NCIH647_LUNG | 5.65 | 0.171 |
| NCIH650_LUNG | 9.27 | 0.0133 |
| NCIH661_LUNG | 9.34 | 0.155 |
| NCIH727_LUNG | 6.54 | 0.129 |
| NCIH747_LARGE_INTESTINE | 0.323 | 0.384 |
